SMILES strings stand for the structures.

By IC50 is commonly meant the concentration that inhibits the measured activity by half.

What all share (type): cell-based
Experiment [1] relates to HCT116 cells. Briefly: MTT antiproliferative assay, HCT116. The conditions noted are these: Homo sapiens, HCT-116, 72 h, read-out: HCT116 IC50. In general terms: Formazan colour is commonly taken as a measure of viable cells.
Experiment [2] has as its system MCF-7 cells. Briefly: MTT antiproliferative assay, MCF-7. The conditions noted are these: Homo sapiens, MCF7, 72 h, read-out: MCF-7 IC50.
The subject of experiment [3] is SKBR-3 cells. Briefly: MTT antiproliferative assay, SKBR-3. The conditions noted are these: Homo sapiens, SK-BR-3, 72 h, read-out: SKBR-3 IC50.

As for `COc1ccc(C=Cc2cc(NC(=O)c3ccc(C(N)=NO)cc3)cc(OC)c2)cc1` [HERP6, 4-(N'-hydroxycarbamimidoyl)-N-[3-methoxy-5-(4-methoxystyryl)phenyl] benzamide], the concentration for half-maximal inhibition (IC50) in experiment [1] was found to be 11.9 µM; in experiment [2] it was 9.2 µM; in experiment [3], 1.62 µM.

The values above are taken from paper PMC2866155 (Chemical biology & drug design, 2009).
